Results as given in the NIST ThermoML archive (doi:10.1016/j.jct.2012.08.021).
Numbers after ± are expanded uncertainties.

Test: xn = mol fraction of the nth substance listed
Conditions: 101 kPa, Liquid, Vibrating tube method

In the case of `NCCO` [2-aminoethan-1-ol] + C[S+](C)[O-], the mass density (293.15 K, x1 = 0.1002) is reported as 1092.35 ± 0.3 kg/m3, the mass density (293.15 K, x1 = 0.2) is reported as 1084.23 ± 0.3 kg/m3 and the mass density (293.15 K, x1 = 0.2999) is reported as 1076.52 ± 0.29 kg/m3. For the same molecule, the mass density (293.15 K, x1 = 0.4002) was 1068.58 ± 0.29 kg/m3, the mass density (293.15 K, x1 = 0.5002) was 1060.65 ± 0.28 kg/m3 and the mass density (293.15 K, x1 = 0.5999) was 1052.61 ± 0.27 kg/m3. It also gave a mass density (293.15 K, x1 = 0.7002) of 1044.32 ± 0.27 kg/m3, a mass density (293.15 K, x1 = 0.8001) of 1035.24 ± 0.26 kg/m3 and a mass density (293.15 K, x1 = 0.8998) of 1026.1 ± 0.25 kg/m3. It also gave a mass density (293.16 K, x1 = 1) of 1016.34 ± 0.24 kg/m3, a mass density (303.14 K, x1 = 0.2999) of 1066.93 ± 0.28 kg/m3 and a mass density (303.14 K, x1 = 1) of 1008.4 ± 0.24 kg/m3. It also gave a mass density (303.15 K, x1 = 0.1002) of 1082.48 ± 0.3 kg/m3, a mass density (303.15 K, x1 = 0.4002) of 1059.15 ± 0.28 kg/m3 and a mass density (303.15 K, x1 = 0.5002) of 1051.41 ± 0.27 kg/m3. For the same molecule, the mass density (303.15 K, x1 = 0.5999) was 1043.58 ± 0.27 kg/m3, the mass density (303.15 K, x1 = 0.7002) was 1035.51 ± 0.26 kg/m3 and the mass density (303.15 K, x1 = 0.8001) was 1026.69 ± 0.25 kg/m3. For the same molecule, the mass density (303.15 K, x1 = 0.8998) was 1017.83 ± 0.24 kg/m3, the mass density (303.16 K, x1 = 0.2) was 1074.46 ± 0.29 kg/m3 and the mass density (313.14 K, x1 = 0.1002) was 1072.61 ± 0.29 kg/m3. The mass density (313.14 K, x1 = 0.2999) was 1057.33 ± 0.28 kg/m3, the mass density (313.14 K, x1 = 1) was 1000.41 ± 0.23 kg/m3 and the mass density (313.15 K, x1 = 0.2) was 1064.73 ± 0.28 kg/m3. The mass density (313.15 K, x1 = 0.4002) was 1049.71 ± 0.27 kg/m3, the mass density (313.15 K, x1 = 0.5002) was 1042.15 ± 0.27 kg/m3 and the mass density (313.15 K, x1 = 0.5999) was 1034.52 ± 0.26 kg/m3. It also gave a mass density (313.15 K, x1 = 0.7002) of 1026.7 ± 0.25 kg/m3, a mass density (313.15 K, x1 = 0.8001) of 1018.12 ± 0.24 kg/m3 and a mass density (313.15 K, x1 = 0.8998) of 1009.56 ± 0.24 kg/m3. The mass density (323.14 K, x1 = 0.1002) was 1062.74 ± 0.28 kg/m3, the mass density (323.15 K, x1 = 0.2999) was 1047.72 ± 0.27 kg/m3 and the mass density (323.15 K, x1 = 0.4002) was 1040.26 ± 0.26 kg/m3. For the same molecule, the mass density (323.15 K, x1 = 0.5002) was 1032.85 ± 0.26 kg/m3, the mass density (323.15 K, x1 = 0.5999) was 1025.42 ± 0.25 kg/m3 and the mass density (323.15 K, x1 = 0.7002) was 1017.83 ± 0.24 kg/m3. It also gave a mass density (323.15 K, x1 = 0.8001) of 1009.5 ± 0.24 kg/m3, a mass density (323.15 K, x1 = 0.8998) of 1001.23 ± 0.23 kg/m3 and a mass density (323.15 K, x1 = 1) of 992.384 ± 0.23 kg/m3. The mass density (323.16 K, x1 = 0.2) was 1054.96 ± 0.27 kg/m3, the mass density (333.14 K, x1 = 0.2999) was 1038.11 ± 0.26 kg/m3 and the mass density (333.14 K, x1 = 1) was 984.302 ± 0.23 kg/m3. The mass density (333.15 K, x1 = 0.1002) was 1052.86 ± 0.27 kg/m3, the mass density (333.15 K, x1 = 0.4002) was 1030.78 ± 0.26 kg/m3 and the mass density (333.15 K, x1 = 0.5002) was 1023.56 ± 0.25 kg/m3. The mass density (333.15 K, x1 = 0.7002) was 1008.93 ± 0.24 kg/m3, the mass density (333.15 K, x1 = 0.8001) was 1000.84 ± 0.23 kg/m3 and the mass density (333.15 K, x1 = 0.8998) was 992.847 ± 0.23 kg/m3. It also gave a mass density (333.16 K, x1 = 0.2) of 1045.22 ± 0.27 kg/m3, a mass density (333.16 K, x1 = 0.5999) of 1016.3 ± 0.24 kg/m3 and a mass density (343.14 K, x1 = 1) of 976.141 ± 0.23 kg/m3. For the same molecule, the mass density (343.15 K, x1 = 0.1002) was 1042.97 ± 0.26 kg/m3, the mass density (343.15 K, x1 = 0.2) was 1035.46 ± 0.26 kg/m3 and the mass density (343.15 K, x1 = 0.2999) was 1028.47 ± 0.25 kg/m3. The mass density (343.15 K, x1 = 0.4002) was 1021.28 ± 0.25 kg/m3, the mass density (343.15 K, x1 = 0.5002) was 1014.22 ± 0.24 kg/m3 and the mass density (343.15 K, x1 = 0.5999) was 1007.15 ± 0.24 kg/m3. For the same molecule, the mass density (343.15 K, x1 = 0.7002) was 999.999 ± 0.23 kg/m3, the mass density (343.15 K, x1 = 0.8001) was 992.114 ± 0.23 kg/m3 and the mass density (343.15 K, x1 = 0.8998) was 984.393 ± 0.23 kg/m3. The mass density (353.14 K, x1 = 0.1002) was 1033.05 ± 0.26 kg/m3, the mass density (353.14 K, x1 = 0.2999) was 1018.81 ± 0.24 kg/m3 and the mass density (353.14 K, x1 = 0.4002) was 1011.75 ± 0.24 kg/m3. It also gave a mass density (353.14 K, x1 = 0.5002) of 1004.84 ± 0.24 kg/m3, a mass density (353.14 K, x1 = 0.7002) of 990.992 ± 0.23 kg/m3 and a mass density (353.14 K, x1 = 0.8001) of 983.32 ± 0.23 kg/m3. It also gave a mass density (353.14 K, x1 = 0.8998) of 975.863 ± 0.23 kg/m3, a mass density (353.14 K, x1 = 1) of 967.893 ± 0.23 kg/m3 and a mass density (353.15 K, x1 = 0.2) of 1025.66 ± 0.25 kg/m3. It also gave a mass density (353.15 K, x1 = 0.5999) of 997.944 ± 0.23 kg/m3, a mass density (363.14 K, x1 = 0.1002) of 1023.1 ± 0.25 kg/m3 and a mass density (363.14 K, x1 = 0.2) of 1015.84 ± 0.24 kg/m3. The mass density (363.14 K, x1 = 0.5002) was 995.408 ± 0.23 kg/m3, the mass density (363.14 K, x1 = 0.5999) was 988.672 ± 0.23 kg/m3 and the mass density (363.14 K, x1 = 0.7002) was 981.91 ± 0.23 kg/m3. It also gave a mass density (363.14 K, x1 = 0.8001) of 974.446 ± 0.23 kg/m3, a mass density (363.14 K, x1 = 0.8998) of 967.234 ± 0.23 kg/m3 and a mass density (363.15 K, x1 = 0.2999) of 1009.1 ± 0.24 kg/m3. For the same molecule, the mass density (363.15 K, x1 = 0.4002) was 1002.17 ± 0.23 kg/m3 and the mass density (363.15 K, x1 = 1) was 959.536 ± 0.23 kg/m3.
